Test results reported in patent publication US20170101432A1, “CRYSTALLINE 3',5'-CYCLIC DIGUANYLIC ACID” (Yamasa Corporation, priority 2014, published 2017).

Assay: Stability: storage at 50° C. in a desiccator containing saturated saline, HPLC purity measured
Assay type: physicochemical
Conditions: for relative residual ratio: storage at 50° C., saturated saline desiccator
Description: Note that the high performance liquid chromatography method was performed under the following condition. Column: Hydrosphere C18 (product of YMC Co., Ltd.) Eluate: 0.1M TEA-P (pH 6.0) Detection method: detection by UV 260 nm The crystals of 3′,5′-cyclic diguanylic acid of the present invention and the co-crystals with cobalt and the co-crystals with magnesium of Reference Examples were stored at 50° C. in a desiccator containing saturated saline, and HPLC purity of each of them was measured on days 0, 7, 31, 84 and 167 after the start of storage. The result of measurement of HPLC purity (%) is shown in Table 5 below and relative residual ratios (%) on each day for measurement after the start of storage, taking the purity of day 0 of measurement as 100%, are shown in Table 6.

[1] = day 0, purity of day 0 taken as 100%
[2] = day 0 after the start of storage at 50° C. in a desiccator containing saturated saline
[3] = day 7, purity of day 0 taken as 100%
[4] = day 7 of storage at 50° C. in a desiccator containing saturated saline
[5] = day 31, purity of day 0 taken as 100%
[6] = day 31 of storage at 50° C. in a desiccator containing saturated saline
[7] = day 84, purity of day 0 taken as 100%
[8] = day 84 of storage at 50° C. in a desiccator containing saturated saline
[9] = day 167, purity of day 0 taken as 100%
[10] = day 167 of storage at 50° C. in a desiccator containing saturated saline

SMILES	relative residual ratio [1]	HPLC purity [2]	relative residual ratio [3]	HPLC purity [4]	relative residual ratio [5]	HPLC purity [6]	relative residual ratio [7]	HPLC purity [8]	relative residual ratio [9]	HPLC purity [10]	decrease rate of HPLC purity (after storing at 50° C. for 167 days in a desiccator containing saturated saline)
Nc1nc2c(ncn2C2OC3COP(=O)(O)OC4C(COP(=O)(O)OC3C2O)OC(n2cnc3c(=O)[nH]c(N)nc32)C4O)c(=O)[nH]1 (stereo not shown) [Co, 3′,5′-cyclic diguanylic acid]	100%	99.9%	100%	99.9%	99.8%	99.7%	99.8%	99.7%	99.6%	99.4%	
Nc1nc2c(ncn2C2OC3COP(=O)(O)OC4C(COP(=O)(O)OC3C2O)OC(n2cnc3c(=O)[nH]c(N)nc32)C4O)c(=O)[nH]1 (stereo not shown) [Mg, 3′,5′-cyclic diguanylic acid]	100%	99.8%	100%	99.7%	99.8%	99.6%	100.0%	99.8%	99.5%	99.3%	
Nc1nc2c(ncn2[C@@H]2O[C@@H]3COP(=O)(O)OC4C(O)[C@H](n5cnc6c(=O)[nH]c(N)nc65)O[C@@H]4COP(=O)(O)OC3C2O)c(=O)[nH]1 (stereo partly shown) [Present Invention, 3′,5′-cyclic diguanylic acid]	100%	99.0%	100.1%	99.1%	99.6%	98.6%	99.9%	98.9%	100.0%	98.9%	less than 1%
